Measured values as given in article PMC9611727, “Optimization of a Novel Mandelamide-Derived Pyrrolopyrimidine Series of PERK Inhibitors” (Pharmaceutics, 2022).

Assays:
Experiment in all cases: scanMAX kinase panel
Format in all cases: binding
Details in all cases: read-out: % Control; for remaining binding at 1 µM: 1000 nM
[1] = biological target: T1, CSF1R (Homo sapiens, UniProt P07333)
T1 construct: purchased DiscoverX scanMAX
Text: (§1) Supplemental Table S2. scanMAXSM Kinome Assay Results. Complete tabulated data of all 468 kinases from the panel, including
(§2) 403 wild-type and 65 mutant isoforms. […] Cmpd 11 and Cmpd 24

[2] = biological target: T2, FLT3(D835H) (Homo sapiens, UniProt P36888, D835H)
T2 construct: purchased DiscoverX scanMAX
T2 sequence (P36888 27-993 D835H): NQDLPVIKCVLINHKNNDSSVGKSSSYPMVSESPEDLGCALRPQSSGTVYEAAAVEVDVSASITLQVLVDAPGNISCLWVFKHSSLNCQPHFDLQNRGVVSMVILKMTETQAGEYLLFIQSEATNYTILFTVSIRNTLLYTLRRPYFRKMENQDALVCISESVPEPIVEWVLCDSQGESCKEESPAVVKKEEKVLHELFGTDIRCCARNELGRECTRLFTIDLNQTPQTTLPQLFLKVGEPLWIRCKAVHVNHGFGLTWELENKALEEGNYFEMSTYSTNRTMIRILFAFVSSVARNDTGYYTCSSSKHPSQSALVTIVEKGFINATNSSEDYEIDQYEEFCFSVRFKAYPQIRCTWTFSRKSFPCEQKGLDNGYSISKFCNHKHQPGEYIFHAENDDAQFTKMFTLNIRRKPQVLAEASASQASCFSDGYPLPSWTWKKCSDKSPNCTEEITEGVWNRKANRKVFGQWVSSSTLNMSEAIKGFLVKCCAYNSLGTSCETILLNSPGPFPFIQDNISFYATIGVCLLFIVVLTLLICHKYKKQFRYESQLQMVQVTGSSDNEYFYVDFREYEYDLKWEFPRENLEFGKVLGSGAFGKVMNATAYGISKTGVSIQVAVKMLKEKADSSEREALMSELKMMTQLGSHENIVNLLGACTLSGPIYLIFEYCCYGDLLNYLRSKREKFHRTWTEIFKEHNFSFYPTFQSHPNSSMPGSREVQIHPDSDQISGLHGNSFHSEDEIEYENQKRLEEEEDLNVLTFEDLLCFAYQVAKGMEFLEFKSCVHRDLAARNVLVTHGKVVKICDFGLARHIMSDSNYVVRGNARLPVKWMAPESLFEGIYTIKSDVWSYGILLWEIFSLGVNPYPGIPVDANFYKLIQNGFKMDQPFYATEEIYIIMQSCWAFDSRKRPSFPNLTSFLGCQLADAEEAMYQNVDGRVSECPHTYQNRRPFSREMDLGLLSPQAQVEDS
Text: as §1, §2

[3] = biological target: T3, PRKR (Homo sapiens, UniProt P19525)
T3 construct: purchased DiscoverX scanMAX
Text: as §1, §2

[4] = biological target: T4, RIPK5 (Homo sapiens, UniProt Q6XUX3)
T4 construct: purchased DiscoverX (scanMAX panel)
T4 sequence (Q6XUX3 1-929): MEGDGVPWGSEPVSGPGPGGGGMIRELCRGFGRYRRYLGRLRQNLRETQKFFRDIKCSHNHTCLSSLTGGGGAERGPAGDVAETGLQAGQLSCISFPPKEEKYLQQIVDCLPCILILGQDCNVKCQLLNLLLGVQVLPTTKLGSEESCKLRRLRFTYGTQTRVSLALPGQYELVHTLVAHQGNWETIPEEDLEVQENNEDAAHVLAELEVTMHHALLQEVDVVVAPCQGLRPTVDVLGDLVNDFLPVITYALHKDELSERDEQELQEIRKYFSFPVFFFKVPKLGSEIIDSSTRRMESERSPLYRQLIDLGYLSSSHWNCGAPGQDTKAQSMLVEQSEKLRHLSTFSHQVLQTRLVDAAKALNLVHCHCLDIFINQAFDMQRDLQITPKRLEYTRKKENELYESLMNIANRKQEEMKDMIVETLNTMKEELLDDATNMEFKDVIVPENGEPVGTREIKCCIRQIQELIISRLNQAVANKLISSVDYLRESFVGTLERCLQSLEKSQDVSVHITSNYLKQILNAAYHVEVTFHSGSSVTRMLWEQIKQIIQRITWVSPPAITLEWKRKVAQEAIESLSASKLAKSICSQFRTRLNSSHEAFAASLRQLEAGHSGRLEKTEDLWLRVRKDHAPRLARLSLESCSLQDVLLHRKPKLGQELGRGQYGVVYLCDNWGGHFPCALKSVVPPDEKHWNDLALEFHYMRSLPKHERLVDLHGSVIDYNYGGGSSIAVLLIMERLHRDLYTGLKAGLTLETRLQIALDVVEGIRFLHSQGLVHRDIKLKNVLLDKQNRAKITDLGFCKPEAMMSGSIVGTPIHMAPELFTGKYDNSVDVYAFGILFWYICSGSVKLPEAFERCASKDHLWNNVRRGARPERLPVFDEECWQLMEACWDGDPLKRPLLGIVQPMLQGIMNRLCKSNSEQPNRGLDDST
Text: as §1, §2

T3 sequence (P19525 whole entry): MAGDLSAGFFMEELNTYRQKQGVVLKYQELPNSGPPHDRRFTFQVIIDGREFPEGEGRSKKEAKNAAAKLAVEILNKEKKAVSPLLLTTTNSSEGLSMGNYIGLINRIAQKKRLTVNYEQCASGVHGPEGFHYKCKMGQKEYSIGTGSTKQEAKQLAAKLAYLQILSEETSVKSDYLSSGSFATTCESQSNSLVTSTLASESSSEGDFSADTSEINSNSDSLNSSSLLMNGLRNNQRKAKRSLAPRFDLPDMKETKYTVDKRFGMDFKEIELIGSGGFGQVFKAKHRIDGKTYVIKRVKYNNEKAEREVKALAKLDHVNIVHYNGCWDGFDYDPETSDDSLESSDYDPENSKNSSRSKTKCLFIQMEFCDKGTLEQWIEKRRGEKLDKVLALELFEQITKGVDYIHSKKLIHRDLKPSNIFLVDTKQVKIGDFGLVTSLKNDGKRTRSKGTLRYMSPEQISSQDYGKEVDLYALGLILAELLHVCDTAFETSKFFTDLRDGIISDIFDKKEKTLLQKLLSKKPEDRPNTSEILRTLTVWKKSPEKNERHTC
T1 sequence (P07333 20-972): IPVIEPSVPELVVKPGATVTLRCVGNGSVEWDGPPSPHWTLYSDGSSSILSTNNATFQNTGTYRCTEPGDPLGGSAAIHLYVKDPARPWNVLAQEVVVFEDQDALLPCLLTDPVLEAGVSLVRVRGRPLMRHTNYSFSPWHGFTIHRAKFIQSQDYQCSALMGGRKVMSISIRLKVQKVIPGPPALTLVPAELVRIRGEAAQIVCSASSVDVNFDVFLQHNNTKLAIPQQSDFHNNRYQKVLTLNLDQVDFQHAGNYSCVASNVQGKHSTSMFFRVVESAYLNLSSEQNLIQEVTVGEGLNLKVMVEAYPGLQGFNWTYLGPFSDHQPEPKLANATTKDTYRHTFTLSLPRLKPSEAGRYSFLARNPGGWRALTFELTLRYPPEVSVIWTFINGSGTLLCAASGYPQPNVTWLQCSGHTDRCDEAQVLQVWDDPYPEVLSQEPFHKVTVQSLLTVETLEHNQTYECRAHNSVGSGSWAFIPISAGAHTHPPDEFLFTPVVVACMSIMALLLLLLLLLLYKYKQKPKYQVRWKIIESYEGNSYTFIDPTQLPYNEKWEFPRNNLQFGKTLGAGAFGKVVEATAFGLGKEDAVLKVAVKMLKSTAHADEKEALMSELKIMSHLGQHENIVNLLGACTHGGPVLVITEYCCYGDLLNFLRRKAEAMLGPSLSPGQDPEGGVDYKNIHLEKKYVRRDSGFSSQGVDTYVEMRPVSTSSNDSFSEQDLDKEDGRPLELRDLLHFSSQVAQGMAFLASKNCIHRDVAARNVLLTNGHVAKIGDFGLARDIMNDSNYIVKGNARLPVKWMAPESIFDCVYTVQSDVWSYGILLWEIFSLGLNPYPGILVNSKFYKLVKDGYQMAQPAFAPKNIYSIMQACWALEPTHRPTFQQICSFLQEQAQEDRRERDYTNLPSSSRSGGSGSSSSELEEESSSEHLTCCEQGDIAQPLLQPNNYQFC

Row | SMILES | remaining binding at 1 µM [1] [%] | remaining binding at 1 µM [2] [%] | remaining binding at 1 µM [3] [%] | remaining binding at 1 µM [4] [%] | remaining binding at 0.1 µM ([1]; 100 nM) [%] | remaining binding at 0.1 µM ([2]; 100 nM) [%] | remaining binding at 0.1 µM ([3]; 100 nM) [%] | remaining binding at 0.1 µM ([4]; 100 nM) [%]
1 | Cc1cc(NC(=O)[C@H](O)c2cccc(F)c2)ccc1-c1cn(C)c2ncnc(N)c12 [Compound 11, (R)-N-(4-(4-amino-7-methyl-7H-pyrrolo[2,3-d]pyrimidin-5-yl)-3-methylphenyl)-2-(3-fluorophenyl)-2-hydroxy acetamide] | 45 | 33 | 42 | 3.4 |  |  |  | 
2 | Cc1nc(N)c2c(-c3ccc(NC(=O)[C@H](O)c4cccc(F)c4)cc3C)cn(C)c2n1 [Compound 24] | 94 | 98 | 42 | 100 |  |  |  | 
3 | Cc1nc(N)c2c(-c3ccc(NC(=O)[C@H](O)c4cccc(C(F)(F)F)c4)cc3C)cn(C)c2n1 [Compound 26] | 15 | 25 | 96 | 100 | 99 | 85 | 91 | 100
